Test results reported in the NIST ThermoML archive (doi:10.1021/je300280s).
Where “and” joins values, the source holds several entries; their conditions need not be identical. Identical values can stand only once.

What was measured:
[1] = excess molar enthalpy (molar enthalpy of mixing); xn = mol fraction of the nth substance listed; conditions: 101.3 kPa, Liquid, Flow calorimetry
[2] = xn = mol fraction of the nth substance listed; conditions: 101.3 kPa, Liquid, Vibrating tube method

CC(=O)C(C)=O [2,3-butanedione] + O
Conditions | excess molar enthalpy, [1] | mass density, [2]
288.15 K, x1 = 0.002059 | – | 1001.04 kg/m3
288.15 K, x1 = 0.002062 | – | 1001.04 kg/m3
288.15 K, x1 = 0.003086 | – | 1002 kg/m3
288.15 K, x1 = 0.003089 | – | 1002 kg/m3
288.15 K, x1 = 0.004111 | – | 1002.95 kg/m3
288.15 K, x1 = 0.004113 | – | 1002.96 kg/m3
288.15 K, x1 = 0.005132 | – | 1003.91 kg/m3
288.15 K, x1 = 0.005135 | – | 1003.91 kg/m3
288.15 K, x1 = 0.006153 | – | 1004.87 kg/m3
288.15 K, x1 = 0.006157 | – | 1004.87 kg/m3
288.18 K, x1 = 0.00103 | -0.0204 kJ/mol | –
288.18 K, x1 = 0.001032 | -0.0204 kJ/mol | –
288.18 K, x1 = 0.002059 | -0.0408 kJ/mol | –
288.18 K, x1 = 0.002062 | -0.0408 kJ/mol | –
288.18 K, x1 = 0.003086 | -0.061 kJ/mol | –
288.18 K, x1 = 0.003089 | -0.061 kJ/mol | –
288.18 K, x1 = 0.004111 | -0.0809 kJ/mol | –
288.18 K, x1 = 0.004113 | -0.0811 kJ/mol | –
288.18 K, x1 = 0.005132 | -0.101 kJ/mol | –
288.18 K, x1 = 0.005135 | -0.101 kJ/mol | –
288.18 K, x1 = 0.006153 | -0.121 kJ/mol | –
288.18 K, x1 = 0.006157 | -0.121 kJ/mol | –
293.15 K, x1 = 0.001031 | -0.0193 kJ/mol | 999.136 kg/m3
293.15 K, x1 = 0.00206 | -0.0387 kJ/mol | 1000.07 kg/m3
293.15 K, x1 = 0.003088 | -0.0578 kJ/mol | 1001 kg/m3
293.15 K, x1 = 0.004114 | -0.0763 kJ/mol | 1001.9 kg/m3
293.15 K, x1 = 0.005136 | -0.0951 kJ/mol | 1002.82 kg/m3
293.15 K, x1 = 0.006158 | -0.114 kJ/mol | 1003.73 kg/m3
298.15 K, x1 = 0.001032 | -0.0186 kJ/mol and -0.0185 kJ/mol | 997.937 kg/m3 and 997.929 kg/m3
298.15 K, x1 = 0.002061 | -0.0369 kJ/mol | 998.816 kg/m3
298.15 K, x1 = 0.002062 | -0.0369 kJ/mol | 998.823 kg/m3
298.15 K, x1 = 0.003089 | -0.0551 kJ/mol | 999.697 kg/m3 and 999.692 kg/m3
298.15 K, x1 = 0.004113 | -0.0731 kJ/mol | 1000.57 kg/m3
298.15 K, x1 = 0.004114 | -0.073 kJ/mol | 1000.56 kg/m3
298.15 K, x1 = 0.005137 | -0.0912 kJ/mol and -0.0911 kJ/mol | 1001.45 kg/m3 and 1001.43 kg/m3
298.15 K, x1 = 0.00616 | -0.109 kJ/mol | 1002.32 kg/m3 and 1002.3 kg/m3
303.15 K, x1 = 0.001032 | -0.0172 kJ/mol | 996.49 kg/m3
303.15 K, x1 = 0.002061 | -0.0343 kJ/mol | 997.341 kg/m3
303.15 K, x1 = 0.003089 | -0.0513 kJ/mol | 998.182 kg/m3
303.15 K, x1 = 0.004114 | -0.0681 kJ/mol | 999.012 kg/m3
303.15 K, x1 = 0.005137 | -0.0849 kJ/mol | 999.84 kg/m3
303.15 K, x1 = 0.006159 | -0.102 kJ/mol | 1000.66 kg/m3
308.15 K, x1 = 0.001031 | -0.0162 kJ/mol | 994.828 kg/m3 and 994.831 kg/m3
308.15 K, x1 = 0.00206 | -0.0325 kJ/mol and -0.0326 kJ/mol | 995.637 kg/m3
308.15 K, x1 = 0.003086 | -0.0487 kJ/mol | 996.432 kg/m3
308.15 K, x1 = 0.003088 | -0.0489 kJ/mol | 996.443 kg/m3
308.15 K, x1 = 0.004109 | -0.0648 kJ/mol | 997.222 kg/m3
308.15 K, x1 = 0.004114 | -0.065 kJ/mol | 997.237 kg/m3
308.15 K, x1 = 0.005131 | -0.0812 kJ/mol | 998.031 kg/m3
308.15 K, x1 = 0.005137 | -0.081 kJ/mol | 998.026 kg/m3
308.15 K, x1 = 0.006152 | -0.0973 kJ/mol | 998.821 kg/m3
308.15 K, x1 = 0.00616 | -0.097 kJ/mol | 998.816 kg/m3
313.15 K, x1 = 0.001032 | -0.0147 kJ/mol | 992.976 kg/m3
313.15 K, x1 = 0.002062 | -0.0297 kJ/mol | 993.745 kg/m3
313.15 K, x1 = 0.003091 | -0.0447 kJ/mol | 994.499 kg/m3
313.15 K, x1 = 0.004116 | -0.0594 kJ/mol | 995.251 kg/m3
313.15 K, x1 = 0.005139 | -0.0743 kJ/mol | 996.015 kg/m3
313.15 K, x1 = 0.006161 | -0.0891 kJ/mol | 996.763 kg/m3
318.15 K, x1 = 0.001031 | -0.0136 kJ/mol | 990.924 kg/m3
318.15 K, x1 = 0.001032 | -0.0136 kJ/mol | 990.928 kg/m3
318.15 K, x1 = 0.00206 | -0.0276 kJ/mol | 991.645 kg/m3
318.15 K, x1 = 0.002062 | -0.0277 kJ/mol | 991.65 kg/m3
318.15 K, x1 = 0.003088 | -0.0418 kJ/mol | 992.362 kg/m3
318.15 K, x1 = 0.00309 | -0.0417 kJ/mol | 992.361 kg/m3
318.15 K, x1 = 0.004114 | -0.0558 kJ/mol | 993.082 kg/m3
318.15 K, x1 = 0.004116 | -0.0558 kJ/mol | 993.069 kg/m3
318.15 K, x1 = 0.005137 | -0.0698 kJ/mol | 993.801 kg/m3
318.15 K, x1 = 0.00514 | -0.0703 kJ/mol | 993.799 kg/m3
318.15 K, x1 = 0.006159 | -0.0841 kJ/mol | 994.517 kg/m3
318.15 K, x1 = 0.006164 | -0.0846 kJ/mol | 994.503 kg/m3

CCCC(=O)OC [methyl butanoate] + O
Conditions | excess molar enthalpy, [1] | mass density, [2]
288.15 K, x1 = 0.000628 | -0.00684 kJ/mol and -0.00688 kJ/mol | 999.058 kg/m3
288.15 K, x1 = 0.000941 | -0.0103 kJ/mol | 999.037 kg/m3
288.15 K, x1 = 0.000943 | -0.0102 kJ/mol | 999.038 kg/m3
288.15 K, x1 = 0.001255 | -0.0134 kJ/mol | 999.019 kg/m3
288.15 K, x1 = 0.001257 | -0.0134 kJ/mol | 999.019 kg/m3
288.15 K, x1 = 0.001569 | -0.0169 kJ/mol | 998.999 kg/m3
288.15 K, x1 = 0.00157 | -0.0166 kJ/mol | 999.001 kg/m3
288.15 K, x1 = 0.001882 | -0.0198 kJ/mol | 998.985 kg/m3
288.15 K, x1 = 0.001884 | -0.0202 kJ/mol | 998.981 kg/m3
298.15 K, x1 = 0.000628 | -0.0051 kJ/mol and -0.00515 kJ/mol | 996.968 kg/m3 and 996.965 kg/m3
298.15 K, x1 = 0.000942 | -0.00771 kJ/mol and -0.00764 kJ/mol | 996.917 kg/m3 and 996.921 kg/m3
298.15 K, x1 = 0.001256 | -0.0101 kJ/mol | 996.885 kg/m3 and 996.884 kg/m3
298.15 K, x1 = 0.001569 | -0.0124 kJ/mol | 996.85 kg/m3
298.15 K, x1 = 0.00157 | -0.0126 kJ/mol | 996.838 kg/m3
298.15 K, x1 = 0.001882 | -0.0151 kJ/mol | 996.8 kg/m3
298.15 K, x1 = 0.001883 | -0.0147 kJ/mol | 996.81 kg/m3
298.15 K, x1 = 0.002195 | -0.0168 kJ/mol | 996.774 kg/m3
298.15 K, x1 = 0.002197 | -0.0169 kJ/mol | 996.773 kg/m3
308.15 K, x1 = 0.000626 | -0.0035 kJ/mol | 993.913 kg/m3
308.15 K, x1 = 0.000627 | -0.00351 kJ/mol | 993.914 kg/m3
308.15 K, x1 = 0.000939 | -0.00517 kJ/mol | 993.855 kg/m3
308.15 K, x1 = 0.000941 | -0.00518 kJ/mol | 993.855 kg/m3
308.15 K, x1 = 0.001253 | -0.00692 kJ/mol | 993.793 kg/m3
308.15 K, x1 = 0.001254 | -0.00675 kJ/mol | 993.798 kg/m3
308.15 K, x1 = 0.001565 | -0.00831 kJ/mol | 993.741 kg/m3
308.15 K, x1 = 0.001567 | -0.00833 kJ/mol | 993.742 kg/m3
308.15 K, x1 = 0.001878 | -0.0101 kJ/mol | 993.673 kg/m3
308.15 K, x1 = 0.00188 | -0.00991 kJ/mol | 993.682 kg/m3
308.15 K, x1 = 0.002191 | -0.0113 kJ/mol | 993.626 kg/m3
308.15 K, x1 = 0.002194 | -0.0114 kJ/mol | 993.63 kg/m3
318.15 K, x1 = 0.000941 | -0.00276 kJ/mol | 989.988 kg/m3
318.15 K, x1 = 0.000942 | -0.0028 kJ/mol | 989.983 kg/m3
318.15 K, x1 = 0.001254 | -0.00362 kJ/mol | 989.911 kg/m3
318.15 K, x1 = 0.001255 | -0.00365 kJ/mol | 989.908 kg/m3
318.15 K, x1 = 0.001567 | -0.00442 kJ/mol | 989.837 kg/m3
318.15 K, x1 = 0.001569 | -0.00444 kJ/mol | 989.832 kg/m3
318.15 K, x1 = 0.001879 | -0.00526 kJ/mol | 989.762 kg/m3
318.15 K, x1 = 0.001882 | -0.00519 kJ/mol | 989.758 kg/m3
318.15 K, x1 = 0.002192 | -0.00589 kJ/mol | 989.694 kg/m3
318.15 K, x1 = 0.002195 | -0.00597 kJ/mol | 989.679 kg/m3
